Laboratory results: the supplement of paper PMC10307832

What was measured:
Test in all cases: relative viability (nuclei count vs DMSO), 5 days (fraction); higher = more cells survive
[1] = compound: C1CSC2=C(C(=O)N1)SC3=C2C=C(C=C3)O [kb NB 142-70] + CC(=O)Nc1cccc(-n2c(=O)n(C3CC3)c(=O)c3c(Nc4ccc(I)cc4F)n(C)c(=O)c(C)c32)c1 [Trametinib] (partner 0.02 µM)
Summary of the method: (§1)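 Relative viability is defined as nuclei in treated wells over nuclei in vehicle wells. Duplicate plates were run and medians reported. Lung cancer cell lines in 1536-well plates were dosed by pin tool one day after seeding, with one drug or with a fixed anchor-drug dose plus five library-drug doses (not always all listed) in √10 steps, and nuclei were counted after 5 days.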

kb NB 142-70 + Dasatinib = compound: C1CSC2=C(C(=O)N1)SC3=C2C=C(C=C3)O [kb NB 142-70] + Cc1nc(Nc2ncc(C(=O)Nc3c(C)cccc3Cl)s2)cc(N2CCN(CCO)CC2)n1 [Dasatinib] (partner 0.075 µM)
Summary of the method: as §1

[2] = compound: NCC(=O)Nc1ccc(-n2nc(C(F)(F)F)cc2-c2ccc3c(ccc4ccccc43)c2)cc1 + O=C(c1cc(Cc2n[nH]c(=O)c3ccccc23)ccc1F)N1CCN(C(=O)C2CC2)CC1 [Olaparib] (partner 8 µM)
Summary of the method: as §1

[3] = compound: NCC(=O)Nc1ccc(-n2nc(C(F)(F)F)cc2-c2ccc3c(ccc4ccccc43)c2)cc1 + C[C@@H](Oc1cc(-c2cnn(C3CCNCC3)c2)cnc1N)c1c(Cl)ccc(F)c1Cl [Crizotinib] (partner 1 µM)
Summary of the method: as §1

kb NB 142-70 + Lapatinib = compound: C1CSC2=C(C(=O)N1)SC3=C2C=C(C=C3)O [kb NB 142-70] + CS(=O)(=O)CCNCc1ccc(-c2ccc3ncnc(Nc4ccc(OCc5cccc(F)c5)c(Cl)c4)c3c2)o1 [Lapatinib] (partner 2 µM)
Summary of the method: as §1

Cell Line | relative viability ([1]; first compound 0.1 µM) | relative viability ([1]; first compound 1 µM) | relative viability ([1]; first compound 3.162 µM) | relative viability (kb NB 142-70 + Dasatinib; first compound 0.1 µM) | relative viability (kb NB 142-70 + Dasatinib; first compound 1 µM) | relative viability (kb NB 142-70 + Dasatinib; first compound 3.162 µM) | relative viability ([2]; first compound 0.02 µM) | relative viability ([2]; first compound 0.06325 µM) | relative viability ([2]; first compound 0.2 µM) | relative viability ([2]; first compound 0.6325 µM) | relative viability ([2]; first compound 2 µM) | relative viability ([3]; first compound 0.02 µM) | relative viability ([3]; first compound 0.06325 µM) | relative viability ([3]; first compound 0.2 µM) | relative viability ([3]; first compound 0.6325 µM) | relative viability ([3]; first compound 2 µM) | relative viability (kb NB 142-70 + Lapatinib; first compound 0.1 µM) | relative viability (kb NB 142-70 + Lapatinib; first compound 1 µM) | relative viability (kb NB 142-70 + Lapatinib; first compound 3.162 µM)
CAL-12T | 0.341 | 0.39 | 0.241 | 0.408 | 0.375 | 0.414 | 0.761 | 0.735 | 0.659 | 0.711 | 0.765 | 0.682 | 0.73 | 0.591 | 0.716 | 0.722 | 0.673 | 0.673 | 0.496
COR-L23 | 0.558 | 0.588 | 0.32 | 0.529 | 0.526 | 0.311 | 0.368 | 0.368 | 0.352 | 0.393 | 0.366 | 0.825 | 0.638 | 0.823 | 0.703 | 0.631 | 0.972 | 1 | 0.586
COR-L 105 | 0.452 | 0.426 | 0.448 | 0.363 | 0.33 | 0.345 | 0.696 | 0.772 | 0.75 | 0.766 | 0.638 | 0.873 | 0.765 | 0.803 | 0.845 | 1.06 | 0.382 | 0.427 | 0.361
EKVX | 0.357 | 0.378 | 0.296 | 0.559 | 0.289 | 0.729 | 0.973 | 0.966 | 0.882 | 0.935 | 1.13 | 1.2 | 0.973 | 0.896 | 1.06 | 0.868 | 0.263 | 0.216 | 0.235
EMC-BAC-2 | 0.876 | 0.917 | 0.941 | 0.363 | 0.305 | 0.235 | 0.433 | 0.514 | 0.539 | 0.483 | 0.5 | 0.737 | 0.763 | 0.797 | 0.712 | 0.765 | 0.942 | 0.898 | 0.743
EPLC-272H | 0.275 | 0.274 | 0.295 | 0.417 | 0.34 | 0.149 | 0.731 | 0.699 | 1.05 | 0.848 | 0.851 | 1.03 | 0.965 | 0.881 | 0.878 | 0.962 | 0.937 | 0.817 | 0.649
H3255 | 0.585 | 0.602 | 0.593 | 0.297 | 0.404 | 0.405 | 0.593 | 0.593 | 0.577 | 0.607 | 0.622 | 0.936 | 0.846 | 0.884 | 0.806 | 0.894 | 0.271 | 0.195 | 0.234
HARA | 0.464 | 0.726 | 1.02 | 0.3 | 0.188 | 0.237 | 1.07 | 1.25 | 0.762 | 0.982 | 1.06 | 1.06 | 1.01 | 1.04 | 1.05 | 1.13 | 0.943 | 0.634 | 0.661
HCC-15 | 0.373 | 0.355 | 0.444 | 0.638 | 0.574 | 0.459 | 0.718 | 0.743 | 0.798 | 0.681 | 0.711 | 0.817 | 0.808 | 0.795 | 0.773 | 0.768 | 0.854 | 0.932 | 0.743
HCC-78 | 0.683 | 0.823 | 0.838 | 0.426 | 0.388 | 0.31 | 0.9 | 0.837 | 1.02 | 0.868 | 0.814 | 0.361 | 0.363 | 0.346 | 0.337 | 0.348 | 0.919 | 0.941 | 0.744
HCC-366 | 0.321 | 0.274 | 0.232 | 0.634 | 0.498 | 0.378 | 0.351 | 0.406 | 0.345 | 0.387 | 0.349 | 0.558 | 0.589 | 0.55 | 0.736 | 0.456 | 1.06 | 0.926 | 0.927
HCC-827 | 0.539 | 0.53 | 0.395 | 0.265 | 0.295 | 0.445 | 0.916 | 0.642 | 0.61 | 0.595 | 0.767 | 0.988 | 1.04 | 0.966 | 0.929 | 0.937 | 0.206 | 0.192 | 0.173
HOP-62 | 0.401 | 0.427 | 0.545 | 0.72 | 0.65 | 0.763 | 0.284 | 0.361 | 0.381 | 0.408 | 0.431 | 0.579 | 0.921 | 0.942 | 0.884 | 0.927 | 1.07 | 0.97 | 0.974
LC-2-ad | 0.898 | 0.937 | 0.875 | 0.609 | 0.607 | 0.463 | 0.676 | 0.801 | 0.728 | 0.719 | 0.698 | 0.463 | 0.543 | 0.433 | 0.47 | 0.389 | 0.96 | 0.885 | 0.937
LCLC-97TM1 | 0.197 | 0.183 | 0.174 | 0.787 | 0.95 | 0.882 | 0.538 | 0.421 | 0.317 | 0.409 | 0.364 | 0.344 | 0.34 | – | 0.348 | 0.29 | 0.992 | 0.685 | 1.08
LK-2 | 0.814 | 0.651 | 0.729 | 0.231 | 0.231 | 0.229 | 0.758 | 0.78 | 0.799 | 0.666 | 0.671 | 0.247 | 0.234 | 0.232 | 0.236 | 0.244 | 0.802 | 0.734 | 0.536
